Experimental data from patent publication US20050137177A1, “Ester combination local anesthetic” (priority 2003, published 2005).

What was measured:
[1] = tested on: sciatic nerve; assay: Rat sciatic nerve block, onset and offset (withdrawal to pinch, proprioception, motor strength); format: in vivo; settings: for duration of sensory block (in words) / onset of sensory block (in words) / duration of full sensory block (until it started to decay): 2% 2-chloroprocaine; for duration of sensory block (in words) / onset of sensory block (in words): 0.22% or 0.5% tetracaine
Procedure: The onset and offset of sciatic nerve block from lidocaine, bupivacaine, tetracaine, and 2-chloroprocaine were examined in studies conducted in rats. Three different modalities were tested: (1) pain (e.g., withdrawal to pinch); (2) proprioception (e.g., the ability to place the paw squarely on the table); and (3) motor strength (e.g., the downward pressure the paw can exert on a scale). In each case, the same volume of local anesthetic agent was tested. The modality of interest was withdrawal to pinch. Each local anesthetic was tested on 5 rats of nearly identical size and age.

[2] = tested on: rat peroneal nerve; settings: in vivo; for peroneal total axonal counts (± SEM): 5 days
From the text: Sections of rat peroneal nerve were taken for evaluation with light microscopy five days post injection with local anesthetic(s). Specifically, each nerve was sectioned and total axonal counts were taken to assess any axonal loss. Five nerves were examined for each treatment condition. The peroneal axonal counts five days after control (saline), bupivacaine, and 2.3% 2-chloroprocaine/0.17% tetracaine injections were 2063±30 (SEM), 1959±81, and 1993±45, respectively.

[3] = tested on: sciatic nerve; settings: rat, in vivo
From the text: Sections were also taken across the sciatic nerve five days after injection with local anesthetic(s) and examined for gross pathological injury.

[4] = between 1990 and 1997; Medline database; cited from earlier work
[5] = 0.17% tetracaine + 2.3% 2-chloroprocaine
[6] = 2.0% lidocaine, 0.17% tetracaine + 2.3% 2-chloroprocaine
[7] = withdrawal to pinch, 2.0% lidocaine, 0.5% bupivacaine, 0.17% tetracaine + 2.3% 2-chloroprocaine

| Compound | sensory block achieved ([1]; 0.22% tetracaine) | sensory block achieved ([1]; 0.5% tetracaine) | duration of sensory block (in words) [1, 5] | onset of sensory block (in words) [1, 6] | motor blockade ([1]; tetracaine studies, all animals, data not shown) | onset of sensory block relative to 2.0% lidocaine ([1]; 0.5% bupivacaine vs 2.0% lidocaine) | time to achieve full sensory block (onset) ([1]; withdrawal to pinch, 0.5% bupivacaine, 0.17% tetracaine + 2.3% 2-chloroprocaine, same volume, 5 rats) | duration of full sensory block (until it started to decay) [1, 7] | total axonal counts compared with saline controls (in words) [2] | peroneal total axonal counts (± SEM) [2] | light microscopic appearance of sciatic nerve at site of injection [3] | deaths (e.g., heart arrest, myocardial infarction, accidental overdose) [4] | onset of block at the first time point tested ([1]; 2.0% lidocaine, 2 minutes after injection, sensory block, 5 rats) |
| --- | --- | --- | --- | --- | --- | --- | --- | --- | --- | --- | --- | --- | --- |
| CCCCNc1ccc(C(=O)OCCN(C)C)cc1 [tetracaine] | less than 60% | less than 60% | dissipated rapidly | slow onset | complete, prolonged motor blockade | – | – | – | – | – | – | – | – |
| CCCCN1CCCCC1C(=O)Nc1c(C)cccc1C (stereo not drawn) [bupivacaine] | – | – | – | – | – | 4 times slower | 8 min | 60 min | no significant difference | 1959±81 | indistinguishable from saline controls | 102 deaths | – |
| CCN(CC)CC(=O)Nc1c(C)cccc1C [lidocaine] | – | – | – | nearly immediate | – | – | – | about 45 minutes | significantly reduced | 1602±167 | marked edema and neural damage | – | 100% |
| CCN(CC)CCOC(=O)c1ccc(N)cc1Cl [2-chloroprocaine] | – | – | substantially shorter without co-administration of tetracaine | slower than with co-administration of tetracaine | – | – | – | about 30 minutes | – | – | – | – | – |
